Assay [1] addresses T1, HiBiT-BRM fusion protein in stable HeLa cell line (Homo sapiens, UniProt P51531).
T1 construct: expressed in transfected cells
As to the kind of experiment: HiBiT-BRM cell-based degradation assay (Nano-Glo HiBiT Lytic Detection, 24 h). The arrangement: DC50: scale not given here. Conditions: HeLa HiBiT-BRM cells; for DC50: read-out: BRM HiBit Degradation IC50; for BRM HiBit Degradation Maximum (%): top dose 30 μM. In short, it runs like this: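 Percent degradation was scaled between DMSO-treated cells and cells given 2 μM of a known BRM/BRG1 degrader. Readout was NanoBiT luminescence after lytic detection. HeLa cells stably expressing HiBiT-BRM were dosed for 24 h, 10 points, 3-fold steps from 30 μM final, in duplicate.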
In general terms: HiBiT is a short tag that completes a luciferase, so light tracks the accessible tagged protein.

Assay [2] addresses T2, HiBit-BRG1 fusion protein in stable HeLa cell line expressing HiBit-BRG1 and LgBit (Homo sapiens, UniProt P51532).
T2 construct: expressed in transfected cells
Nature of the assay: HiBiT-BRG1 cell-based degradation assay (Nano-Glo HiBiT, 24 h). Particulars: HeLa HiBit-BRG1/LgBit cells; for DC50: read-out: BRMG1 HiBit Degradation IC50; for Dmax: top dose 30 μM, read-out: BRG1 HiBit Degradation Maximum (%). In short, it runs like this: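 Degradation calculated from NanoBiT luminescence relative to DMSO-treated cells (high) and cells given 2 μM known BRM/BRG1 degrader (low). HeLa cells stably expressing HiBiT-BRG1 plus LgBiT were exposed to compound for 24 h before lytic HiBiT detection.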

T1 sequence (P51531 whole entry, the tested form may be a part): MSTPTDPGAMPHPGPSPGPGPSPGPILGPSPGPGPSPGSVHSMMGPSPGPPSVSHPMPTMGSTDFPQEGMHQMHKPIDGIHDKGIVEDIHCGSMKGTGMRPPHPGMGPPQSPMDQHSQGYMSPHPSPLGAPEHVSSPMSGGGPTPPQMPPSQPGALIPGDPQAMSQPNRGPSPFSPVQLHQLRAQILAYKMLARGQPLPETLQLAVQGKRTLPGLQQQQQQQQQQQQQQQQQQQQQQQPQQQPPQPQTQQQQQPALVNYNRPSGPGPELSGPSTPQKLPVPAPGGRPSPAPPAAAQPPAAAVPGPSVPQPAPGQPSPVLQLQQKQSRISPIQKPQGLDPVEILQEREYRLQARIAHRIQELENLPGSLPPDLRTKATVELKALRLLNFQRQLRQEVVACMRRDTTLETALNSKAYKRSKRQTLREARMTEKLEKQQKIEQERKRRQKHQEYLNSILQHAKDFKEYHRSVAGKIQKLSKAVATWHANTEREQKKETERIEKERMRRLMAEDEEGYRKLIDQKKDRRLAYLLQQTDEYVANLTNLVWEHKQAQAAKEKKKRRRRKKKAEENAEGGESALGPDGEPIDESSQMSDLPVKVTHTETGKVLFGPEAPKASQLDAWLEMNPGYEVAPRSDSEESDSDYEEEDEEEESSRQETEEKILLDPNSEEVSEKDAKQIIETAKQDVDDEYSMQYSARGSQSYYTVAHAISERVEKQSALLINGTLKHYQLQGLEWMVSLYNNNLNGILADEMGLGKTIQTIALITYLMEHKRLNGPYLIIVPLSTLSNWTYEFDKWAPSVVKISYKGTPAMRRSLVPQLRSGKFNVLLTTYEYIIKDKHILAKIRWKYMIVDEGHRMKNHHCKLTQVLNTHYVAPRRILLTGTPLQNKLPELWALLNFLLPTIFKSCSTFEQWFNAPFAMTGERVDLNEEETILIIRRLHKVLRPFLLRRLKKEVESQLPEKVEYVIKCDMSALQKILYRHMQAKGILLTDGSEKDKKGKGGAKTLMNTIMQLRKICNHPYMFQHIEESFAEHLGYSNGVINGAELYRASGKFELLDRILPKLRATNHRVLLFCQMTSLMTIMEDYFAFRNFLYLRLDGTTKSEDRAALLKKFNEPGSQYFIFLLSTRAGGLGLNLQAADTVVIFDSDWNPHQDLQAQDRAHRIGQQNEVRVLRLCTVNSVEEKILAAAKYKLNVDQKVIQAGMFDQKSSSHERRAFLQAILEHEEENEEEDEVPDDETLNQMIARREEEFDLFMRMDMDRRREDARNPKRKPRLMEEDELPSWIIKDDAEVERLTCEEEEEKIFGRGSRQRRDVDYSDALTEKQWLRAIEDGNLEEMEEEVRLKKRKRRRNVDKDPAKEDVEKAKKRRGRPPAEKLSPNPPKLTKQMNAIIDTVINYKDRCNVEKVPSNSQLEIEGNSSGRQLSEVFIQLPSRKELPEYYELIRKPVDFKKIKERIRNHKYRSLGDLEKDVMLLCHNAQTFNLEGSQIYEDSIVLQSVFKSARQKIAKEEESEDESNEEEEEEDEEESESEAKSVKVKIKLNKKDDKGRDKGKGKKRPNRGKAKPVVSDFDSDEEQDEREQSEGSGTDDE
T2 sequence (P51532 whole entry, the tested form may be a part): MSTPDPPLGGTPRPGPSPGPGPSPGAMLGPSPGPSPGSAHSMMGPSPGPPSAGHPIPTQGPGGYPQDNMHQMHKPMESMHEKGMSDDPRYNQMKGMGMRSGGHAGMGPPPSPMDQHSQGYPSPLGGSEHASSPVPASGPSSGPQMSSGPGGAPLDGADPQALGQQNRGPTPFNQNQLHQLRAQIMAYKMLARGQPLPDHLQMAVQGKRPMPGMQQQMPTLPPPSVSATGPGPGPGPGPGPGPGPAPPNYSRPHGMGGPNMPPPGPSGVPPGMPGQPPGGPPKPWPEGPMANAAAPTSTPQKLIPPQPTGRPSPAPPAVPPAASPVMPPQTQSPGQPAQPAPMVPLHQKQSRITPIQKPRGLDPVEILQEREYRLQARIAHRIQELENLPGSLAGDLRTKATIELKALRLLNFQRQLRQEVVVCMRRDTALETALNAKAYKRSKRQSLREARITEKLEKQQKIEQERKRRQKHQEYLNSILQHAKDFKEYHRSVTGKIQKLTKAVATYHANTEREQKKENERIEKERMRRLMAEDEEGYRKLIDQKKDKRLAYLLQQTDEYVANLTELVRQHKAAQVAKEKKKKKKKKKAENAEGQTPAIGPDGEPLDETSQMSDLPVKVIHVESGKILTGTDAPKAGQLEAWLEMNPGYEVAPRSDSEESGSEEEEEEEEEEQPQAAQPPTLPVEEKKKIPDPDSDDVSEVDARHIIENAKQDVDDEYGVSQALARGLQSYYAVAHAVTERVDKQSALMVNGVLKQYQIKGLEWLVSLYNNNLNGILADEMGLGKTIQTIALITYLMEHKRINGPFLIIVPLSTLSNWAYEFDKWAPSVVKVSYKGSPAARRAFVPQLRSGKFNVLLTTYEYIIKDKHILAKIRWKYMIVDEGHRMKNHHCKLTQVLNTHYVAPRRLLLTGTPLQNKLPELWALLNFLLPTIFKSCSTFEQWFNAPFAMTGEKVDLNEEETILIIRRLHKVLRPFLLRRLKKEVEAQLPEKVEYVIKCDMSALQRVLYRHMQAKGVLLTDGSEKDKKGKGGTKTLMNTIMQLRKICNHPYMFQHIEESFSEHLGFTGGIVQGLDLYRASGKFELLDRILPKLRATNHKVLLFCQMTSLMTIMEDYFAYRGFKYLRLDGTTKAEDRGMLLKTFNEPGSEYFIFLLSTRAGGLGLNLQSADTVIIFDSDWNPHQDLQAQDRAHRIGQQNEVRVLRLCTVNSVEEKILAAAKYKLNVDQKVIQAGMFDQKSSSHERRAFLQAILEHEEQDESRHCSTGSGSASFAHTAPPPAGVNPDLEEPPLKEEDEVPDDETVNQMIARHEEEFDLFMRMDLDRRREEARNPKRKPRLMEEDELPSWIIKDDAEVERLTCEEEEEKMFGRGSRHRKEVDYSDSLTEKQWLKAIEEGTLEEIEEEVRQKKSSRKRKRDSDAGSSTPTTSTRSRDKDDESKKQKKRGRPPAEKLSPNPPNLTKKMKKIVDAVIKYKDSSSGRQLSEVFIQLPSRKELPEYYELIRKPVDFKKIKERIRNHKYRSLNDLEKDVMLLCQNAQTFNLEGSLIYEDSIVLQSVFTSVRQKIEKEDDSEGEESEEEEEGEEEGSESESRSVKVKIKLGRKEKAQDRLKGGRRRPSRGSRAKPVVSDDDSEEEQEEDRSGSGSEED

As to `Cc1ncsc1-c1ccc([C@H](C)NC(=O)[C@@H]2C[C@@H](O)CN2C(=O)[C@@H](c2cc(N3CCC4(CC[C@H](c5ccc6nnc(-c7ccccc7O)cc6c5)C4)CC3)no2)C(C)C)cc1` [Compound 75, (2S,4R)-4-hydroxy-1-((R)-2-(3-((S)-2-(3-(2-hydroxyphenyl)cinnolin-6-yl)-8-azaspiro[4.5]decan-8-yl)isoxazol-5-yl)-3-methylbutanoyl)-N-((S)-1-(4-(4-methylthiazol-5-yl)phenyl)ethyl)pyrrolidine-2-carboxamide], in assay [1], the DC50 is below 10 nM and the “BRM HiBit Degradation Maximum (%)” value was “A (“A” indicates maximum degradation ≥75%)”. Besides, in assay [2], the DC50 is above 10 nM and the Dmax was above 75%.
In the same order, the values of `Cc1cc2cc(-c3ccccc3O)nnc2cc1N1CC2(CN(c3cc([C@H](C(=O)N4C[C@H](O)C[C@H]4C(=O)N[C@@H](C)c4ccc(-c5scnc5C)cc4)C(C)C)on3)C2)C1` [Compound 121, (2S,4R)-4-hydroxy-1-((R)-2-(3-(6-(3-(2-hydroxyphenyl)-6-methylcinnolin-7-yl)-2,6-diazaspiro[3.3]heptan-2-yl)isoxazol-5-yl)-3-methylbutanoyl)-N-((S)-1-(4-(4-methylthiazol-5-yl)phenyl)ethyl)pyrrolidine-2-carboxamide] are below 10 nM, “A (“A” indicates maximum degradation ≥75%)”, below 10 nM and above 75%.
For `Cc1ncsc1-c1ccc([C@H](C)NC(=O)[C@@H]2C[C@@H](O)CN2C(=O)[C@@H](c2cc(-c3cnc(N4CC[C@@H](c5ccc6nnc(-c7ccccc7O)cc6c5)C4)nc3)no2)C(C)C)cc1` [Compound 50, (2S,4R)-4-hydroxy-1-((R)-2-(3-(2-((S)-3-(3-(2-hydroxyphenyl)cinnolin-6-yl)pyrrolidin-1-yl)pyrimidin-5-yl)isoxazol-5-yl)-3-methylbutanoyl)-N-((S)-1-(4-(4-methylthiazol-5-yl)phenyl)ethyl)pyrrolidine-2-carboxamide], in assay [1], the DC50 is below 10 nM and the “BRM HiBit Degradation Maximum (%)” value is listed as “A (“A” indicates maximum degradation ≥75%)”. In assay [2], the Dmax is above 50%.
Taken in the same sequence, the figures for `Cc1ncsc1-c1ccc(CNC(=O)[C@@H]2C[C@@H](O)CN2C(=O)C(c2cc(N3CC4(CN(c5ccc6cc(-c7ccccc7O)nnc6c5)C4)C3)no2)C(C)C)cc1` (stereo partly drawn) [Compound 117, (2S,4R)-4-hydroxy-1-(2-(3-(6-(3-(2-hydroxyphenyl)cinnolin-7-yl)-2,6-diazaspiro[3.3]heptan-2-yl)isoxazol-5-yl)-3-methylbutanoyl)-N-(4-(4-methylthiazol-5-yl)benzyl)pyrrolidine-2-carboxamide] were below 10 nM, “A (“A” indicates maximum degradation ≥75%)” and below 50%.
Take `Cc1ncsc1-c1ccc([C@H](C)NC(=O)[C@@H]2C[C@@H](O)CN2C(=O)[C@@H](c2cc(N3CCN4CCN(c5ccc6cc(-c7ccccc7O)nnc6c5)CC4C3)no2)C(C)C)cc1` (stereo partly drawn) [Compound 155, (2S,4R)-4-hydroxy-1-((2R)-2-(3-(8-(3-(2-hydroxyphenyl)cinnolin-7-yl)octahydro-2H-pyrazino[1,2-a]pyrazin-2-yl)isoxazol-5-yl)-3-methylbutanoyl)-N-((S)-1-(4-(4-methylthiazol-5-yl)phenyl)ethyl)pyrrolidine-2-carboxamide]: in assay [1], the DC50 was below 10 nM and the “BRM HiBit Degradation Maximum (%)” value is recorded as “A (“A” indicates maximum degradation ≥75%)”. Besides, in assay [2], the DC50 is below 10 nM and the Dmax was above 75%.
Regarding `Cc1ncsc1-c1ccc([C@H](C)NC(=O)[C@@H]2C[C@@H](O)CN2C(=O)[C@@H](c2cc(-c3cnc(N4CC[C@@H](c5ccc6cc(-c7ccccc7O)nnc6c5)C4)nc3)no2)C(C)C)cc1` [Compound 20], in assay [1], the DC50 was below 10 nM and the “BRM HiBit Degradation Maximum (%)” value is “A (“A” indicates maximum degradation ≥75%)”. Moreover, in assay [2], the Dmax is below 50%.
On to `Cc1ncsc1-c1ccc([C@H](C)NC(=O)[C@@H]2C[C@@H](O)CN2C(=O)C(C(C)C)n2cc(N3CCC4(CCN(c5ccc6nnc(-c7ccccc7O)cc6c5)CC4)C3)nn2)cc1` (some centres unmarked) [Compound 279], for which, in assay [1], the DC50 is below 10 nM and the “BRM HiBit Degradation Maximum (%)” value is “A (“A” indicates maximum degradation ≥75%)”. Further, in assay [2], the DC50 was above 10 nM and the Dmax was above 75%.
Regarding `Cc1ncsc1-c1ccc([C@H](C)NC(=O)[C@@H]2C[C@@H](O)CN2C(=O)[C@@H](c2cc(N3CC4(CN(c5cc(C#N)c6cc(-c7ccccc7O)nnc6c5)C4)C3)no2)C(C)C)cc1` [Compound 173, (2S,4R)-1-((R)-2-(3-(6-(5-cyano-3-(2-hydroxyphenyl)cinnolin-7-yl)-2,6-diazaspiro [3.3]heptan-2-yl)isoxazol-5-yl)-3-methylbutanoyl)-4-hydroxy-N-((S)-1-(4-(4-methylthiazol-5-yl)phenyl)ethyl)pyrrolidine-2-carboxamide], in assay [1], the DC50 is above 10 nM and the “BRM HiBit Degradation Maximum (%)” value is “B (“B” indicates maximum degradation ≥50%)”. The Dmax in assay [2] was below 50%.
Turning to `Cc1ncsc1-c1ccc([C@H](C)NC(=O)[C@@H]2C[C@@H](O)CN2C(=O)[C@@H](c2cc(N3CC4(C3)CN(c3cc5nnc(-c6ccccc6O)cc5cc3OC(F)F)C4)no2)C(C)C)cc1` [Compound 206, (2S,4R)-1-((R)-2-(3-(6-(6-(difluoromethoxy)-3-(2-hydroxyphenyl)cinnolin-7-yl)-2,6-diazaspiro[3.3]heptan-2-yl)isoxazol-5-yl)-3-methylbutanoyl)-4-hydroxy-N-((S)-1-(4-(4-methylthiazol-5-yl)phenyl)ethyl)pyrrolidine-2-carboxamide], in assay [1], the DC50 was below 10 nM and the “BRM HiBit Degradation Maximum (%)” value is reported as “A (“A” indicates maximum degradation ≥75%)”. In assay [2], the DC50 was above 10 nM and the Dmax was above 50%.
`Cc1ncsc1-c1ccc([C@H](C)NC(=O)[C@@H]2C[C@@H](O)CN2C(=O)C(c2cc(N3CCC4(CN(c5ccc6cc(-c7ccccc7O)nnc6c5)C4)C(F)(F)C3)no2)C(C)C)cc1` (stereo partly drawn) [Compound 108, (2S,4R)-1-(2-(3-(5,5-difluoro-2-(3-(2-hydroxyphenyl)cinnolin-7-yl)-2,7-diazaspiro [3.5]nonan-7-yl)isoxazol-5-yl)-3-methylbutanoyl)-4-hydroxy-N-((S)-1-(4-(4-methylthiazol-5-yl)phenyl)ethyl)pyrrolidine-2-carboxamide]: in assay [1], the DC50 was below 10 nM and the “BRM HiBit Degradation Maximum (%)” value is listed as “A (“A” indicates maximum degradation ≥75%)”. Further, in assay [2], the DC50 was above 10 nM and the Dmax is above 75%.
In the case of `Cc1ncsc1-c1ccc([C@H](C)NC(=O)[C@@H]2C[C@@H](O)CN2C(=O)[C@@H](c2cc(N3CC4(CCN(c5ccc6cc(-c7ccccc7O)nnc6c5)CC4(F)F)C3)no2)C(C)C)cc1` [Compound 105, (2S,4R)-1-((R)-2-(3-(5,5-difluoro-7-(3-(2-hydroxyphenyl)cinnolin-7-yl)-2,7-diazaspiro[3.5]nonan-2-yl)isoxazol-5-yl)-3-methylbutanoyl)-4-hydroxy-N-((S)-1-(4-(4-methylthiazol-5-yl)phenyl)ethyl)pyrrolidine-2-carboxamide], in assay [1], the DC50 is below 10 nM and the “BRM HiBit Degradation Maximum (%)” value is “A (“A” indicates maximum degradation ≥75%)”. Further, in assay [2], the DC50 was below 10 nM and the Dmax is above 75%.
With `Cc1ncsc1-c1ccc([C@H](C)NC(=O)[C@@H]2C[C@@H](O)CN2C(=O)C(C(C)C)n2cc(N3C4CCC3CN(c3ccc5cc(-c6ccccc6O)nnc5c3)C4)nn2)cc1` (stereo partly drawn) [Compound 268, (2S,4R)-4-hydroxy-1-(2-(4-(3-(3-(2-hydroxyphenyl)cinnolin-7-yl)-3,8-diazabicyclo[3.2.1]octan-8-yl)-1H-1,2,3-triazol-1-yl)-3-methylbutanoyl)-N-((S)-1-(4-(4-methylthiazol-5-yl)phenyl)ethyl)pyrrolidine-2-carboxamide], in assay [1], the DC50 was above 100 nM and the “BRM HiBit Degradation Maximum (%)” value is “A (“A” indicates maximum degradation ≥75%)”. Also, in assay [2], the Dmax is below 50%.
On to `Cc1ncsc1-c1ccc([C@H](C)NC(=O)[C@@H]2C[C@@H](O)CN2C(=O)[C@@H](c2cc(N3CC4(CCN(c5ccc6cc(-c7ccccc7O)nnc6c5)C4)C3)no2)C(C)C)cc1` [Compound 132, (2S,4R)-4-hydroxy-1-((R)-2-(3-(6-(3-(2-hydroxyphenyl)cinnolin-7-yl)-2,6-diazaspiro[3.4]octan-2-yl)isoxazol-5-yl)-3-methylbutanoyl)-N-((S)-1-(4-(4-methylthiazol-5-yl)phenyl)ethyl)pyrrolidine-2-carboxamide], for which, in assay [1], the DC50 was below 10 nM and the “BRM HiBit Degradation Maximum (%)” value is given as “A (“A” indicates maximum degradation ≥75%)”. Moreover, in assay [2], the DC50 was below 10 nM and the Dmax is above 75%.
On to `Cc1ncsc1-c1ccc([C@H](C)NC(=O)[C@@H]2C[C@@H](O)CN2C(=O)[C@@H](c2cc(N3CCC4(CC3)CCN(c3ccc5cc(-c6ccccc6O)nnc5c3)C4=O)no2)C(C)C)cc1` [Compound 104, (2S,4R)-4-hydroxy-1-((R)-2-(3-(2-(3-(2-hydroxyphenyl)cinnolin-7-yl)-1-oxo-2,8-diazaspiro[4.5]decan-8-yl)isoxazol-5-yl)-3-methylbutanoyl)-N-((S)-1-(4-(4-methylthiazol-5-yl)phenyl)ethyl)pyrrolidine-2-carboxamide], for which, in assay [1], the DC50 was below 10 nM and the “BRM HiBit Degradation Maximum (%)” value was “A (“A” indicates maximum degradation ≥75%)”. For the same compound, in assay [2], the Dmax is below 50%.

Source of the values: US20260193264A1, “BENZOYPARAZINE PYRAZINES AND THEIR USES” (FOGHORN THERAPEUTICS INC., priority 2022, published 2026).
